Data as given in patent US20250197864A1, “LNCRNA TRANSCRIPTS IN MELANOMAGENESIS” (The Regents of the University of California, priority 2021, published 2025).

Test system: gene expression in D04 melanoma cells
Assay: RNA-Seq differential expression analysis (DESeq2)
Format: cell-based, human
Method: Total RNA was isolated using the RNeasy mini Kit (QIAGEN) following the manufacturer's protocol. Quality check for extracted RNA was done using 2100 Bioanalyzer (Agilent Technologies, USA) or Tapestation System (Agilent Technologies, USA). […] For samples used for identification of MAPK-responsive lncRNAs, paired-end, 101-bp sequencing was performed by Centrillion Genomic Services (Centrillion Biosciences, USA) on an Illumina HiSeq 2000. For DE gene analysis of ASO-transfected D04 samples, paired-end, 2×150-bp sequencing was performed by Genewiz (USA) on a Illumina HiSeq.
Sequence reads were aligned to the human genome (hg19) using TopHat (Version 2.0.11).
Differential expression (DE) analysis was done using DESeq2. Differentially expressed genes were defined by more than 1.5-fold changes (log 2 >0.58 or <−0.58) in expression with FDR<0.05. GO term analysis was done using DAVID Functional Annotation Clustering analysis.
To examine the biomolecular changes upon TRASH-inhibition in melanoma, D04 cells were treated with TRASH-ASOs (SEQ ID NO:15) and Control-ASOs and RNA was extracted and used for RNA-Seq. […] These GO terms consisted of genes encoding growth factors, tyrosine kinases, G protein coupled receptor subunits, and collagen subunits. Scatter plot diagram showing differential gene expression after TRASH-ASO treatment compared to Control-ASO treatment. (cut-off for significance was adjusted p-value <0.05). Data was obtained from RNA-Seq of D04 melanoma cells, treatment period was three days. (FIG. 5c)

## GACTGGAGATAATTAA (gapmer, pattern not given here) [SEQ ID NO: 15, GapmeR ASO targeting AC004540.4 (TRASH), exon region of both isoforms; used for in vitro experiments]
PPM1L (ENSG00000163590)
  log2FoldChange: −0.7017
PRICKLE2 (ENSG00000163637)
  log2FoldChange: −0.6639
PRR5L (ENSG00000135362)
  log2FoldChange: −0.6328
PTPRN2 (ENSG00000155093)
  log2FoldChange: 2.844
PTPRR (ENSG00000153233)
  log2FoldChange: 1.4591
PURPL (ENSG00000250337)
  log2FoldChange: −0.6494
PYROXD2 (ENSG00000119943)
  log2FoldChange: −0.6602
RAB11FIP3 (ENSG00000090565)
  log2FoldChange: −0.5869
RAB26 (ENSG00000167964)
  log2FoldChange: −0.6129
RAB39B (ENSG00000155961)
  log2FoldChange: 2.06
RASEF (ENSG00000165105)
  log2FoldChange: 1.674
RASL10B (ENSG00000270885)
  log2FoldChange: −0.6526
RBMS3 (ENSG00000144642)
  log2FoldChange: −0.6061
RFTN2 (ENSG00000162944)
  log2FoldChange: −0.6802
RGS4 (ENSG00000117152)
  log2FoldChange: 1.366
RGS5 (ENSG00000143248)
  log2FoldChange: −0.6262
RINL (ENSG00000187994)
  log2FoldChange: 1.242
ROBO4 (ENSG00000154133)
  log2FoldChange: 2.692
RPLPOP2 (ENSG00000243742)
  log2FoldChange: 1.744
RUNDC3A (ENSG00000108309)
  log2FoldChange: 1.302
S1PR2 (ENSG00000267534)
  log2FoldChange: −0.6769
S100A3 (ENSG00000188015)
  log2FoldChange: −0.6246
SAMD5 (ENSG00000203727)
  log2FoldChange: −0.6969
SAMD9L (ENSG00000177409)
  log2FoldChange: −0.5978
SBSN (ENSG00000189001)
  log2FoldChange: 1.621
SBSPON (ENSG00000164764)
  log2FoldChange: −0.705
SCG2 (ENSG00000171951)
  log2FoldChange: −0.6659
SCG5 (ENSG00000166922)
  log2FoldChange: 1.621
SCN1B (ENSG00000105711)
  log2FoldChange: −0.608
SCN4A (ENSG00000007314)
  log2FoldChange: 2.301
SDCCAG8 (ENSG00000054282)
  log2FoldChange: −0.7066
SERPINB7 (ENSG00000166396)
  log2FoldChange: 1.415
SERPINI2 (ENSG00000114204)
  log2FoldChange: 2.645
SH2D1B (ENSG00000198574)
  log2FoldChange: 1.495
SHROOM4 (ENSG00000158352)
  log2FoldChange: −0.6228
SIGLEC15 (ENSG00000197046)
  log2FoldChange: 2.101
SIL1 (ENSG00000120725)
  log2FoldChange: −0.6521
SLAMF7 (ENSG00000026751)
  log2FoldChange: 2.821
SLAMF9 (ENSG00000162723)
  log2FoldChange: 2.487
SLC45A2 (ENSG00000164175)
  log2FoldChange: −0.6697
SLCO4C1 (ENSG00000173930)
  log2FoldChange: −0.6425
SOCS2 (ENSG00000120833)
  log2FoldChange: −0.5921
SOCS3 (ENSG00000184557)
  log2FoldChange: −0.6206
SOX2 (ENSG00000181449)
  log2FoldChange: −0.7006
SPANXC (ENSG00000198573)
  log2FoldChange: 1.331
SPINK1 (ENSG00000164266)
  log2FoldChange: 3.07
SPINT2 (ENSG00000167642)
  log2FoldChange: 2.192
SPRY2 (ENSG00000136158)
  log2FoldChange: −0.6059
SPRY4 (ENSG00000187678)
  log2FoldChange: −0.6537
ST6GALNAC2 (ENSG00000070731)
  log2FoldChange: −0.6963
ST6GALNAC5 (ENSG00000117069)
  log2FoldChange: −0.6397
STRA6 (ENSG00000137868)
  log2FoldChange: −0.6369
STX17-AS1 (ENSG00000255145)
  log2FoldChange: 1.8172
SULT1A1 (ENSG00000196502)
  log2FoldChange: −0.7045
SYNGR1 (ENSG00000100321)
  log2FoldChange: −0.6288
SYT11 (ENSG00000132718)
  log2FoldChange: 1.326
SYT16 (ENSG00000139973)
  log2FoldChange: 1.62
TEK (ENSG00000120156)
  log2FoldChange: −0.6347
TENM1 (ENSG00000009694)
  log2FoldChange: −0.7059
TFAP2E (ENSG00000116819)
  log2FoldChange: −0.6597
TGFB3 (ENSG00000119699)
  log2FoldChange: −0.6408
TGFBR3 (ENSG00000069702)
  log2FoldChange: −0.639
THSD4 (ENSG00000187720)
  log2FoldChange: −0.6139
TINAGL1 (ENSG00000142910)
  log2FoldChange: 1.287
TM4SF1 (ENSG00000169908)
  log2FoldChange: 1.389
TMC8 (ENSG00000167895)
  log2FoldChange: 1.259
TMEM117 (ENSG00000139173)
  log2FoldChange: −0.6405
TMEM135 (ENSG00000166575)
  log2FoldChange: −0.6788
TNFRSF11B (ENSG00000164761)
  log2FoldChange: −0.5845
TNFSF8 (ENSG00000106952)
  log2FoldChange: 1.66
TNFSF10 (ENSG00000121858)
  log2FoldChange: −0.6562
TNFSF11 (ENSG00000120659)
  log2FoldChange: −0.6111
TOM1L2 (ENSG00000175662)
  log2FoldChange: −0.6126
TRIB2 (ENSG00000071575)
  log2FoldChange: −0.6666
TRIML2 (ENSG00000179046)
  log2FoldChange: 2.081
TSPAN9 (ENSG00000011105)
  log2FoldChange: −0.6484
VIPR2 (ENSG00000106018)
  log2FoldChange: 1.91
VWA1 (ENSG00000179403)
  log2FoldChange: −0.6674
VWCE (ENSG00000167992)
  log2FoldChange: 1.639
XAF1 (ENSG00000132530)
  log2FoldChange: −0.6048
XG (ENSG00000124343)
  log2FoldChange: 2.256
ZC3H6 (ENSG00000188177)
  log2FoldChange: −0.6449
ZDHHC11 (ENSG00000188818)
  log2FoldChange: 1.322
ZFYVE28 (ENSG00000159733)
  log2FoldChange: −0.6436
ZHX2 (ENSG00000178764)
  log2FoldChange: −0.5891
ZNF165 (ENSG00000197279)
  log2FoldChange: 1.226
ZNF185 (ENSG00000147394)
  log2FoldChange: 1.367
ZSCAN31 (ENSG00000235109)
  log2FoldChange: −0.6972
